Results as given in patent US20220106304A1, “Transcription Factor BRN2 Inhibitory Compounds as Therapeutics and Methods for Their Use” (The University of British Columbia, priority 2018, published 2022).

Molecular target: T1, BRN2 (Homo sapiens, UniProt P20265)
T1 sequence (P20265 1-443): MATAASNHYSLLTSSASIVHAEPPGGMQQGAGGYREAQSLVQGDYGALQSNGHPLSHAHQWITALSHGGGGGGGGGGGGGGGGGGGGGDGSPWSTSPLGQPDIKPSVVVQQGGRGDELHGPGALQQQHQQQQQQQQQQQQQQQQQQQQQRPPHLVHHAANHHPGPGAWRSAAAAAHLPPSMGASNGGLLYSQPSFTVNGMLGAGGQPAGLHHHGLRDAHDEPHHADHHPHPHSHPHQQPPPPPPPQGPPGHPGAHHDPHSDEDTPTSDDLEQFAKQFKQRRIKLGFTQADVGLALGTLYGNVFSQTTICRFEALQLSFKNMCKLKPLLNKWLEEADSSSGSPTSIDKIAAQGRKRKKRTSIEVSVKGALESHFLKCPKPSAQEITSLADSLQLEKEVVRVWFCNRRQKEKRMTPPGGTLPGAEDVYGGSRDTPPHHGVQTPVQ
Assay: cell-based
Conditions: for % BRN2 Inhibition (10 μM): 10 μM compound; for % BRN2 Inhibition (10 μM) / % BRN2 Inhibition (30 μM): 24 hours, 42D^ENZR cells stably expressing BRN2-luciferase reporter; for % BRN2 Inhibition (10 μM) / % BRN2 Inhibition (30 μM) / inhibition at 10 µM / inhibition at 30 µM: negative = activation; for % BRN2 Inhibition (30 μM): 30 μM compound; for inhibition at 10 µM: read-out: % BRN2 Inhibition (10 μM), 10 μM compound, 24 hours, 42D^ENZR cells stably expressing BRN2-luciferase reporter; for inhibition at 30 µM: read-out: % BRN2 Inhibition (30 μM), 30 μM compound, 24 hours, 42D^ENZR cells stably expressing BRN2-luciferase reporter; for cell death (30 μM): cell death = severe toxicity at a low dose
Excerpt: Decreased expression of luciferase protein is validated via western blot to confirm downregulation and avoid false positive molecules that inhibit luciferase protein activity and not BRN2-drive luciferase expression. Molecules are prioritized by their inhibition potency to measure direct interaction with BRN2 in Step 2.
In TABLES 1 and 2, when a single value is mentioned in columns Met Stab % and T½, it refers to compound's stability in MLM and when two values are given they represent HLM/MLM. There is a distinction in TABLES 1 and 2 difference between “Active” and “Specific” or “Specificity”. Compounds are first tested to quantify inhibition of BRN2 transcriptional activity in a luciferase assay to determine “Activity” at […] and 30 μM concentrations. […] Where data is not available “na” is inserted. Where data has yet to be calculated the notation “nc” is used.

SMILES	% BRN2 Inhibition (10 μM)	% BRN2 Inhibition (30 μM)	inhibition at 10 µM [%]	inhibition at 30 µM [%]	cell death (30 μM)
CCn1c(-c2csc(-c3ccccn3)n2)nc2ccccc21 [VPC-18-15]	insoluble	insoluble	–	–	–
Cn1c(-c2ccc(-c3ccccc3)o2)nc2ccc([N+](=O)[O-])cc21 [VPC-18-30, 1-Methyl-6-nitro-2-(5-phenylfuran-2-yl)-1H-benzo[d]imidazole]	–	–	2.63	17.4	–
Cn1c(-c2ccc(-c3ccc(Br)cc3Cl)o2)nc2ccc(C(F)(F)F)cc21 [VPC-18-34, 2-(5-(4-Bromo-2-chlorophenyl)furan-2-yl)-1-methyl-6-(trifluoromethyl)-1H-benzo[d]imidazole]	–	–	-0.86	46.7	–
Cn1c(-c2csc(-c3ccccc3)n2)nc2ccc(Cl)cc21 [VPC-18-37, 4-(6-Chloro-1-methyl-1H-benzo[d]imidazol-2-yl)-2-phenylthiazole]	–	–	-14.5	-58.7	–
c1ccc2oc(-c3csc(N4CC5CC4CO5)n3)cc2c1 (stereo not shown) [VPC-18-38, 5-(4-(Benzofuran-2-yl)thiazol-2-yl)-2-oxa-5-azabicyclo[2.2.1]heptane]	–	–	-51.2	67	–
Cn1c(-c2ccc(-c3ccc(F)cc3F)o2)nc2ccc([N+](=O)[O-])cc21 [VPC-18-39, 2-(5-(2,4-Difluorophenyl)furan-2-yl)-1-methyl-6-nitro-1H-benzo[d]imidazole]	–	–	-150	-63.1	–
O=[N+]([O-])c1ccc2nc(-c3ccc(-c4ccc(Br)cc4Cl)o3)[nH]c2c1 [VPC-18-40, 2-(5-(4-Bromo-2-chlorophenyl)furan-2-yl)-6-nitro-1H-benzo[d]imidazole]	–	–	-32.7	-84.1	–
Cn1c(-c2ccc(-c3cncnc3)o2)nc2ccccc21 [VPC-18-43, 1-Methyl-2-(5-(pyrimidin-5-yl)furan-2-yl)-1H-benzo[d]imidazole]	–	–	-124	-83	–
O=[N+]([O-])c1ccc(-c2nc(-c3cc4ccccc4o3)cs2)cc1 [VPC-18-44, 4-(Benzofuran-2-yl)-2-(4-nitrophenyl)thiazole]	–	–	-45	-104	–
NS(=O)(=O)c1ccc2nc(-c3csc(-c4ccccc4F)n3)[nH]c2c1 [VPC-18-46, 2-(2-(2-Fluorophenyl)thiazol-4-yl)-1H-benzo[d]imidazole-6-sulfonamide]	–	–	-69.6	-158	–
O=[N+]([O-])c1ccc(-c2nc(-c3cc4ccccc4o3)cs2)o1 [VPC-18-49, 4-(Benzofuran-2-yl)-2-(5-nitrofuran-2-yl)thiazole]	–	–	-48	-21	–
Cn1c(-c2ccc(N3CC4CC3CO4)o2)nc2ccccc21 (stereo not shown) [VPC-18-50, 5-(5-(1-Methyl-1H-benzo[d]imidazol-2-yl)furan-2-yl)-2-oxa-5-azabicyclo[2.2.1]heptane]	–	–	-26.6	27.5	–
O=[N+]([O-])c1ccc2cc(-c3csc(-c4ccco4)n3)oc2c1 [VPC-18-52, 2-(Furan-2-yl)-4-(6-nitrobenzofuran-2-yl)thiazole]	–	–	-15.8	-46	–
O=[N+]([O-])c1ccc(-c2nc(-c3cc4ccc(F)cc4o3)cs2)o1 [VPC-18-54, 4-(6-Fluorobenzofuran-2-yl)-2-(5-nitrofuran-2-yl)thiazole]	–	–	-60	-45	–
O=[N+]([O-])c1ccc2cc(-c3csc(-c4ccc(F)cc4F)n3)oc2c1 [VPC-18-55, 2-(2,4-Difluorophenyl)-4-(6-nitrobenzofuran-2-yl)thiazole]	–	–	-9.94	-54	–
Cn1c(-c2csc(-c3ccc(Br)cc3F)n2)nc2ccc(F)cc21 [VPC-18-56, 2-(4-Bromo-2-fluorophenyl)-4-(6-fluoro-1-methyl-1H-benzo[d]imidazol-2-yl)thiazole]	INACTIVE	INACTIVE	–	–	–
Cc1c(-c2csc(-c3ccc(Br)cc3F)n2)oc2cc(F)ccc12 [VPC-18-57, 2-(4-Bromo-2-fluorophenyl)-4-(6-fluoro-3-methylbenzofuran-2-yl)thiazole]	INACTIVE	INACTIVE	–	–	–

SMILES	% BRN2 Inhibition (10 μM)	% BRN2 Inhibition (30 μM)	inhibition at 10 µM [%]	inhibition at 30 µM [%]	cell death (30 μM)
Cn1c(-c2ccc(C3CCCO3)o2)nc2ccccc21 (stereo not shown) [VPC-18-58, 1-Methyl-2-(5-(tetrahydrofuran-2-yl)furan-2-yl)-1H-benzo[d]imidazole]	INACTIVE	INACTIVE	–	–	–
Clc1cc(Br)ccc1-c1nc(-c2cc3ccccc3o2)cs1 [VPC-18-59, 4-(Benzofuran-2-yl)-2-(4-bromo-2-chlorophenyl)thiazole]	INACTIVE	INACTIVE	–	–	–
Cn1c(-c2ccc(-c3ccc(Br)cc3Cl)o2)nc2ccccc21 [VPC-18-60]	–	–	13	-37	–
Cn1c(-c2ccc(-c3ccccc3)o2)nc2ccc(C(F)(F)F)cc21 [VPC-18-61]	–	–	-97	-92	–
Cn1c(-c2ccc(-c3ccc(C#N)cc3)o2)nc2ccccc21 [VPC-18-62]	–	–	-62	-110	–
Cn1c(-c2ccc(-c3cccnc3)o2)nc2ccc(C(F)(F)F)cc21 [VPC-18-64]	–	–	-30	-59	–
Cn1c(-c2ccc(-c3ccccc3F)o2)nc2ccc(C(F)(F)F)cc21 [VPC-18-65]	–	–	-52	-3	–
Cn1c(-c2ccc(C3=CCNCC3)o2)nc2ccccc21 [VPC-18-67]	–	–	-38	8	–
CN1CCC(c2ccc(-c3nc4ccccc4n3C)o2)CC1 [VPC-18-68]	–	–	11	14	–
Cn1c(-c2ccc(-c3ccc(F)cc3F)o2)nc2ccc(C(F)(F)F)cc21 [VPC-18-69]	–	–	-8	12	–
Cl.Cn1c(-c2ccc(C3=CCNCC3)o2)nc2ccc(C(F)(F)F)cc21 [VPC-18-70, 1-methyl-2-(5-(1,2,3,6-tetrahydropyridin-4-yl)furan-2-yl)-6-(trifluoromethyl)-1H-benzo[d]imidazole hydrochloride]	–	–	74	100	cell death
Cn1c(-c2ccc(N3CCC(F)(F)CC3)o2)nc2ccc(C(F)(F)F)cc21 [VPC-18-79]	–	–	-12.3	2.4	–
NC(=O)c1ccc2cc(-c3csc(-c4ccco4)n3)oc2c1 [VPC-18-83]	–	–	-40	-10	–
Cl.Clc1ccc2cc(-c3csc(C4=CCNCC4)n3)oc2c1 [VPC-18-95, 4-(6-chlorobenzofuran-2-yl)-2-(1,2,3,6-tetrahydropyridin-4-yl)thiazole hydrochloride]	–	–	79.8	100	cell death
Clc1ccc2cc(-c3csc(C4=CCNCC4)n3)oc2c1 [VPC-18-97, 4-(6-chlorobenzofuran-2-yl)-2-(1,2,3,6-tetrahydropyridin-4-yl)thiazole]	65%	99.95%	–	–	–
FC(F)(F)c1cccc2oc(-c3csc(-c4ccco4)n3)cc12 [VPC-18-101]	–	–	-81	-43	–
O=C(NC1(c2ccco2)CC1)c1cc2ccc(C(F)(F)F)cc2o1 [VPC-18-119]	–	–	69.9	-25	–
